Source: patent US11229709B2, “Dendrimer drug conjugates for sustained intra-articular delivery” (Massachusetts Institute of Technology, priority 2017, dated 2022)

Legend:
osteophytes = assay: Rat surgical osteoarthritis model ACLT+MMx, micro-computed tomography osteophyte volume; type: in vivo; settings: single injection after surgery
Protocol: (§1) Skeletally mature male Sprague-Dawley rats of 12 weeks of age (350-400 g, Taconic) were injured by the Anterior Cruciate Ligament Transection and Partial Medial Meniscectomy (ACLT+pMMx) method to induce arthritis. […] Treatments were given by intra-articular injection into the affected joint 48 hours after surgery, using a joint concentration of 6 M IGF-1. Rats were sacrificed for analysis 30 days after surgery.
After fixation and before decalcification, excised rat joints were attached to the bore of a microCT scanner (GE eXplore CT 120) and scanned at 0.03° angles for a total of 1200 scans over a time period of 1.5 hours. Scans used an 80 kV x-ray potential, 32 mA current, and a 100 ms integration time. Image data sets were reconstructed into regions of interest encompassing single joints using Microview software (Parallax Innovations).
3D positioning data were used to quantify total volume of osteophytes (bone spurs) on each joint. 3D DICOM analysis software (Osirix MD) was used by a blinded investigator to re-section the images into a uniform frontal plane, perpendicular to an axis tangential to the femoral condyles and tibial plateau in the sagittal plane and an axis bisecting the femoral condyles and tibial plateau in the transverse plane. […] The sections were then reconstructed to 3D, and total osteophyte ROI volume was calculated for each rat. […]

[1] = tested on: medial tibia cartilage degeneration; assay: Rat surgical osteoarthritis model ACLT+MMx, histological analysis; type: in vivo; design: mean area of degenerated medial tibial cartilage, % of total cartilage area: dose or concentration left out as unconfirmed; settings: single intra-articular injection 48 hours after surgery
Protocol: as §1
Histological processing and analysis was performed according to the guidelines for rat surgical models by the Osteoarthritis Research Society International (OARSI) histopathology initiative (Gerwin et al, Osteoarthritis and Cartilage, 2010, Schmitz et al, Osteoarthritis and Cartilage 2010). Six 250 μm frontal step sections were taken from the central ˜1.5 mm of the joint and stained with Toluidine Blue/Fast Green. Aggrecan in healthy cartilage is stained blue (dark) and collagens in bone or degenerated cartilage are stained green (light). The section with the most severe medial tibia cartilage lesion was identified by a blinded investigator and used for all further analysis. Sections were scored quantitatively for degeneration in a blinded manner by histomorphometry techniques based on OARSI histopathology initiative guidelines.
Degenerated tissue was defined as >50% cell death and loss of toluidine blue staining. […]

[2] = Joint residence time after intra-articular injection (IVIS imaging); settings: rats, calculated from half-life, dose injected and drug EC50
From the text: Prior to injection, knee joints were shaved and disinfected with iodine scrub and 70% ethanol, 3 times. Rats were serially imaged at timepoints using a IVIS Spectrum (Perkin-Elmer) instrument at 640/680 nm. Images were quantified by drawing an anatomical Region of Interest (ROI) around the knee joint, applying to each image, and measuring radiant efficiency within the ROI on Living Image (Perkin-Elmer) software. Data for each treatment group was fit to a single exponential decay curve (FIG. 4C) with a terminal plateau assigned to all groups based on imaging an untreated rat.

## insulin like growth factor 1 [IGF-1]
osteophytes
  reduction of osteophyte burden versus untreated: ~50%
osteophytes; 30 days after surgery, microCT
  mean total osteophyte volume (burden): 0.60 mm^3
[1]; 30 days after surgery
  mean width of cartilage degeneration at the cartilage surface (0% tissue depth): 1390 μm
[1]; joint concentration of IGF-1, 30 days after surgery
  mean area of degenerated medial tibial cartilage, % of total cartilage area: 19.7%
[2]
  time at relevant (therapeutic) doses in the joint: 3 days
